Test results as given in PubChem BioAssay (NCI).
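Assay format: 96-well plates, 48-hour exposure. Here, GI50 denotes the concentration required for 50% inhibition of growth. The concentration for full growth arrest is given as TGI.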

Legend:
Assay in all cases: NCI-60 cell line screen, 48 h
786-0 renal = test system: 786-0 renal
A498 renal = test system: A498 renal
A549 NSCLC = test system: A549 NSCLC
ACHN renal = test system: ACHN renal
BT-549 breast = test system: BT-549 breast
CAKI-1 renal = test system: CAKI-1 renal
CCRF-CEM leukemia = test system: CCRF-CEM leukemia
COLO 205 colon = test system: COLO 205 colon
DU-145 prostate = test system: DU-145 prostate
EKVX NSCLC = test system: EKVX NSCLC
HCC-2998 colon = test system: HCC-2998 colon
HCT-116 colon = test system: HCT-116 colon
HCT-15 colon = test system: HCT-15 colon
HL-60(TB) leukemia = test system: HL-60(TB) leukemia
HOP-62 NSCLC = test system: HOP-62 NSCLC
HOP-92 NSCLC = test system: HOP-92 NSCLC
HS 578T breast = test system: HS 578T breast
HT29 colon = test system: HT29 colon
IGROV1 ovarian = test system: IGROV1 ovarian
K-562 leukemia = test system: K-562 leukemia
KM12 colon = test system: KM12 colon
LOX IMVI melanoma = test system: LOX IMVI melanoma
M14 melanoma = test system: M14 melanoma
MALME-3M melanoma = test system: MALME-3M melanoma
MCF7 breast = test system: MCF7 breast
MDA-MB-231 breast = test system: MDA-MB-231 breast
MDA-MB-435 = test system: MDA-MB-435
MDA-MB-468 breast = test system: MDA-MB-468 breast
MOLT-4 leukemia = test system: MOLT-4 leukemia
NCI-H226 lung = test system: NCI-H226 lung
NCI-H23 lung = test system: NCI-H23 lung
NCI-H460 lung = test system: NCI-H460 lung
NCI-H522 lung = test system: NCI-H522 lung
NCI/ADR-RES ovarian = test system: NCI/ADR-RES ovarian
OVCAR-3 ovarian = test system: OVCAR-3 ovarian
OVCAR-4 ovarian = test system: OVCAR-4 ovarian
OVCAR-5 ovarian = test system: OVCAR-5 ovarian
OVCAR-8 ovarian = test system: OVCAR-8 ovarian
PC-3 prostate = test system: PC-3 prostate
RPMI-8226 leukemia = test system: RPMI-8226 leukemia
RXF 393 renal = test system: RXF 393 renal
SF-268 CNS = test system: SF-268 CNS
SF-295 CNS = test system: SF-295 CNS
SF-539 CNS = test system: SF-539 CNS
SK-MEL-2 melanoma = test system: SK-MEL-2 melanoma
SK-MEL-28 melanoma = test system: SK-MEL-28 melanoma
SK-MEL-5 melanoma = test system: SK-MEL-5 melanoma
SK-OV-3 ovarian = test system: SK-OV-3 ovarian
SN12C renal = test system: SN12C renal
SNB-19 CNS = test system: SNB-19 CNS
SNB-75 CNS = test system: SNB-75 CNS
SR leukemia = test system: SR leukemia
SW-620 colon = test system: SW-620 colon
T-47D breast = test system: T-47D breast
TK-10 renal = test system: TK-10 renal
U251 CNS = test system: U251 CNS
UACC-257 melanoma = test system: UACC-257 melanoma
UACC-62 melanoma = test system: UACC-62 melanoma
UO-31 renal = test system: UO-31 renal

Question: Which results are given for `COc1sc(/C=N/NC(=O)c2[nH]c3ccc(Br)cc3c2-c2ccccc2)cc1Cl`?
Answer: GI50 (786-0 renal): 2.78 µM; TGI (786-0 renal): 41.9 µM; GI50 (A498 renal): 11.1 µM; TGI (A498 renal): 53.7 µM; GI50 (A549 NSCLC): 2.64 µM; TGI (A549 NSCLC): > 100 µM; GI50 (ACHN renal): 2.38 µM; TGI (ACHN renal): > 100 µM; GI50 (BT-549 breast): 3.72 µM; TGI (BT-549 breast): 8.48 µM; GI50 (CAKI-1 renal): 0.798 µM; TGI (CAKI-1 renal): 94.6 µM; GI50 (CCRF-CEM leukemia): 3.09 µM; TGI (CCRF-CEM leukemia): > 100 µM; GI50 (COLO 205 colon): 0.294 µM; TGI (COLO 205 colon): 0.728 µM; GI50 (DU-145 prostate): 3.23 µM; TGI (DU-145 prostate): 32.5 µM; GI50 (EKVX NSCLC): 4.49 µM; TGI (EKVX NSCLC): > 100 µM; GI50 (HCC-2998 colon): 3.74 µM; TGI (HCC-2998 colon): > 100 µM; GI50 (HCT-116 colon): 1.74 µM; TGI (HCT-116 colon): 10.1 µM; GI50 (HCT-15 colon): 2.96 µM; TGI (HCT-15 colon): > 100 µM; GI50 (HL-60(TB) leukemia): 1.52 µM; TGI (HL-60(TB) leukemia): 5.23 µM; GI50 (HOP-62 NSCLC): 1 µM; TGI (HOP-62 NSCLC): 13.1 µM; GI50 (HOP-92 NSCLC): 9.72 µM; TGI (HOP-92 NSCLC): > 100 µM; GI50 (HS 578T breast): 1.73 µM; TGI (HS 578T breast): 44.4 µM; GI50 (HT29 colon): 1.07 µM; TGI (HT29 colon): 7.46 µM; GI50 (IGROV1 ovarian): 3.05 µM; TGI (IGROV1 ovarian): 30.7 µM; GI50 (K-562 leukemia): 0.502 µM; TGI (K-562 leukemia): > 100 µM; GI50 (KM12 colon): 2.79 µM; TGI (KM12 colon): > 100 µM; GI50 (LOX IMVI melanoma): 1.61 µM; TGI (LOX IMVI melanoma): 40.7 µM; GI50 (M14 melanoma): 2.12 µM; TGI (M14 melanoma): > 100 µM; GI50 (MALME-3M melanoma): 3.98 µM; TGI (MALME-3M melanoma): > 100 µM; GI50 (MCF7 breast): 0.447 µM; TGI (MCF7 breast): > 100 µM; GI50 (MDA-MB-231 breast): 3.23 µM; TGI (MDA-MB-231 breast): 43.1 µM; GI50 (MDA-MB-435): 0.346 µM; TGI (MDA-MB-435): 2.6 µM; GI50 (MDA-MB-468 breast): 0.895 µM; TGI (MDA-MB-468 breast): 5.54 µM; GI50 (MOLT-4 leukemia): 3.3 µM; TGI (MOLT-4 leukemia): 26.7 µM; GI50 (NCI-H226 lung): 2.12 µM; TGI (NCI-H226 lung): 8.3 µM; GI50 (NCI-H23 lung): 3.72 µM; TGI (NCI-H23 lung): > 100 µM; GI50 (NCI-H460 lung): 2.79 µM; TGI (NCI-H460 lung): 10.7 µM; GI50 (NCI-H522 lung): 0.2 µM; TGI (NCI-H522 lung): 0.566 µM; GI50 (NCI/ADR-RES ovarian): 0.649 µM; TGI (NCI/ADR-RES ovarian): 4.58 µM; GI50 (OVCAR-3 ovarian): 0.607 µM; TGI (OVCAR-3 ovarian): 11.1 µM; GI50 (OVCAR-4 ovarian): 6.38 µM; TGI (OVCAR-4 ovarian): > 100 µM; GI50 (OVCAR-5 ovarian): 3.28 µM; TGI (OVCAR-5 ovarian): 72.9 µM; GI50 (OVCAR-8 ovarian): 0.69 µM; TGI (OVCAR-8 ovarian): 11.5 µM; GI50 (PC-3 prostate): 3.06 µM; TGI (PC-3 prostate): > 100 µM; GI50 (RPMI-8226 leukemia): 1.96 µM; TGI (RPMI-8226 leukemia): > 100 µM; GI50 (RXF 393 renal): 0.935 µM; TGI (RXF 393 renal): > 100 µM; GI50 (SF-268 CNS): 2.67 µM; TGI (SF-268 CNS): > 100 µM; GI50 (SF-295 CNS): 1.2 µM; TGI (SF-295 CNS): 27.2 µM; GI50 (SF-539 CNS): 1.23 µM; TGI (SF-539 CNS): 4.55 µM; GI50 (SK-MEL-2 melanoma): 1.54 µM; TGI (SK-MEL-2 melanoma): > 100 µM; GI50 (SK-MEL-28 melanoma): 3.26 µM; TGI (SK-MEL-28 melanoma): > 100 µM; GI50 (SK-MEL-5 melanoma): 1.73 µM; TGI (SK-MEL-5 melanoma): 4.36 µM; GI50 (SK-OV-3 ovarian): 0.741 µM; TGI (SK-OV-3 ovarian): 22.8 µM; GI50 (SN12C renal): 3.16 µM; TGI (SN12C renal): > 100 µM; GI50 (SNB-19 CNS): 4.22 µM; TGI (SNB-19 CNS): > 100 µM; GI50 (SNB-75 CNS): 0.74 µM; TGI (SNB-75 CNS): 26.9 µM; GI50 (SR leukemia): 1 µM; TGI (SR leukemia): > 100 µM; GI50 (SW-620 colon): 2.88 µM; TGI (SW-620 colon): > 100 µM; GI50 (T-47D breast): 6.62 µM; TGI (T-47D breast): > 100 µM; GI50 (TK-10 renal): 4.48 µM; TGI (TK-10 renal): > 100 µM; GI50 (U251 CNS): 3.39 µM; TGI (U251 CNS): 86.6 µM; GI50 (UACC-257 melanoma): 5.78 µM; TGI (UACC-257 melanoma): > 100 µM; GI50 (UACC-62 melanoma): 0.696 µM; TGI (UACC-62 melanoma): > 100 µM; GI50 (UO-31 renal): 2.21 µM; TGI (UO-31 renal): > 100 µM
